In PMC8662641, “Site-Specific Labeling of Endogenous Proteins Using CoLDR Chemistry” (Journal of the American Chemical Society, 2021):
Where “and” joins values, the source holds several entries; their conditions need not be identical. Equal entries are not always repeated.

Columns and labels:
BTK-1h = molecular target: T1, BTK-1h (Homo sapiens, UniProt Q06187); test: High-throughput screening with 1h-labeled BTK; format: binding
T1 construct: The BTK kinase domain was diluted to 2 μM in the buffer, and 2 μM 1h was added; made in house
Experimental: The collection was composed of BTK binding compounds obtained in our previous luminescence screen[37] (Data set S2). […] The resulting BTK-1h (50 μL) was added to the inhibitors.

BTK = BTK (Homo sapiens, UniProt Q06187); design: BTK kinase domain was expressed and purified as previously reported; made in house; method as in Reddi et al., J. Am. Chem. Soc. 2021, 143 (13), 4979–4992; details: ref Reddi et al., J. Am. Chem. Soc. 2021, 143 (13), 4979–4992; cited from earlier work
[1] = Dataset S2A, 200 μM compound, BTK-1h, 32 °C, 10 min

Sequence of BTK (Q06187 402-655 limits assumed): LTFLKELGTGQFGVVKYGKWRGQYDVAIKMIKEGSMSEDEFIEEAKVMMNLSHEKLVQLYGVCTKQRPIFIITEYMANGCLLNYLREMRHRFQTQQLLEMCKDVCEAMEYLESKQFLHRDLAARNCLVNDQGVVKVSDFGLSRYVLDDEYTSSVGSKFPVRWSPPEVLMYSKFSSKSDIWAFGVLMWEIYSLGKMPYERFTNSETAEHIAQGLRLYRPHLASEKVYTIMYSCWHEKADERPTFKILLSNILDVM
T1 sequence (Q06187 402-655): as the sequence (Q06187 402-655 limits assumed) above

Structure (SMILES) | FI (650)/FI (620) (BTK-1h; [1]) | FI (BTK-1h)/FI (BTK-1h+Inhibitor) at 620 nm (BTK-1h; [1]) | BTK Inhibition reported in luminescence assay* (BTK) | FI (650)/FI (620) (BTK-1h; Dataset S2C, BTK-1h with inhibitor)
COc1c(O)c(C)cc2c1C(=O)c1c(O)cccc1C2=O [PCM-0216457-001] | 1.085 | 1.022 | 64.1 | –
Cl.Cl.Fc1ccc(C(c2ccc(F)cc2)N2CCN(C/C=C/c3ccccc3)CC2)cc1 [PCM-0065210-003] | 0.8526 | 1.036 | 87.2 | –
Cl.N/C(=N\N=C\c1ccc(Cl)cc1)N/N=C/c1ccc(Cl)cc1 [PCM-0215125-001] | 1.174 | 1.002 | 77.8 | –
Cn1cc(C2=C(c3cccc(N)c3)C(=O)NC2=O)c2ccccc21 [PCM-0215795-001] | 1.701 | 1.062 | 80.3 | –
CC(C)(C)c1cc(NC(=O)Nc2ccc(Oc3ccnc4[nH]c(=O)cnc34)cc2F)n(-c2ccccc2)n1 [PCM-0215780-001] | 1.123 | 1.039 | 61.4 | –
COc1nc2ccc(Br)cc2cc1[C@@H](c1ccccc1)[C@@](O)(CCN(C)C)c1cccc2ccccc12.O=C(O)/C=C/C(=O)O [PCM-0215093-001] | 1.148 | 1.067 | 84 | –
CC1=C(O)C(=O)C=C2C1=CC=C1[C@@]2(C)CC[C@@]2(C)[C@@H]3C[C@](C)(C(=O)O)CC[C@]3(C)CC[C@]12C [PCM-0214611-001] | 0.9422 | 1.014 | 67.7 | –
N#CC(C#N)=Cc1ccc(O)c(O)c1 [PCM-0064867-001] | 0.9306 | 1.013 | 54.5 | –
C=CC(=O)Nc1cccc(C)c1Nc1ncc2cc(-c3c(Cl)c(OC)cc(OC)c3Cl)ccc2n1 [PCM-0215508-001] | 1.043 | 1.041 | 100.4 | –
CN(C)C/C=C/C(=O)Nc1ccc(C(=O)Nc2cccc(Nc3ncc(Cl)c(-c4c[nH]c5ccccc45)n3)c2)cc1 [PCM-0213464-002, THZ1 2HCl] | 2.745 | 2.341 | 116.6 | 2.341
Cc1cc(Nc2nc(N[C@@H](C)c3ccc(F)cc3)c(C#N)cc2F)n[nH]1 [PCM-0095250-002] | 1.215 | 1.03 | 99.3 | –
O=S(=O)([O-])c1ccc2cc(N=Nc3cc(S(=O)(=O)[O-])c4cccnc4c3O)ccc2c1.[Na+].[Na+] [PCM-0215685-001] | 1.281 | 1.027 | 54.1 | –
Cc1ccc(-n2[nH]c(C)c(N=Nc3cccc(-c4cccc(C(=O)O)c4)c3O)c2=O)cc1C [PCM-0214811-001] | 1.073 and 1.008 | 1.009 and 1.024 | 80.2 | –
COc1ccc2[nH]cc(/C=C3\C(=O)Nc4ccc(NC(=O)CCN5CCCCC5)cc43)c2c1 [PCM-0216653-001] | 1.609 | 0.9946 | 51.7 | –
CN(C)C/C=C/C(=O)Nc1cc2c(Nc3ccc(F)c(Cl)c3)ncnc2cc1O[C@H]1CCOC1 [PCM-0094907-003] | 0.9254 | 1.084 | 84.8 | –
Cc1c[nH]c2nc(Nc3ccc(N4CCN(C)CC4)c(F)c3)nc(-c3cccc(CC#N)c3)c12 [PCM-0215633-001] | 1.1215 | 1.062 | 92.4 | –
NC(=O)c1cnc2[nH]ccc2c1NC1[C@@H]2CC3C[C@H]1CC(O)(C3)C2 (stereo partly shown) [PCM-0215550-001] | 1.093 | 1.086 | 94.5 | –
CC(C)=CCC/C(C)=C/Cc1c(O)c(CC=C(C)C)c2c(c1O)C(=O)C1=C[C@@H]3C[C@H]4C(C)(C)O[C@@](C/C=C(/C)C(=O)O)(C3=O)[C@@]14O2 [PCM-0216347-001] | 1.074 | 1.011 | 100.4 | –

Structure (SMILES) | FI (650)/FI (620) (BTK-1h; [1]) | FI (BTK-1h)/FI (BTK-1h+Inhibitor) at 620 nm (BTK-1h; [1]) | BTK Inhibition reported in luminescence assay* (BTK) | FI (650)/FI (620) (BTK-1h; Dataset S2C, BTK-1h with inhibitor)
Cc1noc(C)c1-c1ccc(-c2cc(C(N)=O)c(NC(N)=O)s2)c(O[C@H]2CCNC2)c1 [PCM-0215541-001, AZD3264] | 2.057 | 1.467 | 74.1 | –
C1=C/COCc2cc(ccc2OCCN2CCCC2)Nc2nccc(n2)-c2cccc(c2)COC/1 [PCM-0215268-001] | 1.364 | 1.2233 | 71.7 | –
CCOc1nc2cccc(C(=O)OC(C)OC(=O)OC3CCCCC3)c2n1Cc1ccc(-c2ccccc2-c2nn[nH]n2)cc1 (stereo not shown) [PCM-0090385-001] | 0.8568 | 1.076 | 53.7 | –
Cc1[nH]c(/C=C2\C(=O)Nc3ccccc32)c(C)c1CCC(=O)O [PCM-0095149-002] | 0.9795 | 1.036 | 52.4 | –
O=C(O)C1(Cc2cccc(Nc3nccs3)n2)CCC(Oc2cccc(Cl)c2F)CC1 (stereo not shown) [PCM-0095334-002] | 1.3013 | 1.347 | 102.1 | –
COc1cccc2c1C(=O)c1c(O)c3c(c(O)c1C2=O)C[C@@](O)(C(=O)CO)C[C@@H]3O[C@H]1C[C@H](N)[C@H](O[C@@H]2CCCCO2)[C@H](C)O1 [PCM-0214749-001] | 0.7711 | 1.012 | 53.7 | –
CC(C)=CCc1cc2c(cc1O)O[C@H](c1ccc(O)cc1)CC2=O [PCM-0216180-001] | 1.0081 | 1.015 | 54.1 | –
COC(=O)N[C@H](C(=O)N1CC2(CC2)C[C@H]1c1ncc(-c2ccc3c(c2)C(F)(F)c2cc(-c4ccc5nc([C@@H]6[C@H]7CC[C@H](C7)N6C(=O)[C@@H](NC(=O)OC)C(C)C)[nH]c5c4)ccc2-3)[nH]1)C(C)C [PCM-0215396-001] | 0.8983 | 1.05 | 74.9 | –
COc1cc(/C=C/C(=O)CC(=O)/C=C/c2ccc(O)cc2)ccc1O [PCM-0216521-001] | 2.134 | 0.9621 | 110.4 | –
COC(=O)C1=C(C)NC(C)=C(C(=O)OCCN2CCN(C(c3ccccc3)c3ccccc3)CC2)C1c1cccc([N+](=O)[O-])c1.Cl.Cl (stereo not shown) [PCM-0090281-005] | 1.357 | 1.072 | 101.2 | –
CCOC(=O)c1ccc(NC(=O)O[C@H]2[C@H](OC(=O)Nc3ccc4c(c3)OCO4)[C@@H](OC(=O)Nc3ccc4c(c3)OCO4)[C@@H](OC)O[C@@H]2CO)cc1 [PCM-0215463-001] | 0.9726 | 1.02 | 98.1 | –
CC/C(=C(/c1ccc(/C=C/C(=O)O)cc1)c1ccc2[nH]ncc2c1)c1ccc(F)cc1Cl [PCM-0216010-001] | 1.58 | 1.142 | 81.1 | –
CN[C@H]1C(=O)N[C@@H]2Cc3ccc(cc3)Oc3cc4cc(c3O[C@@H]3O[C@H](C(=O)O)[C@@H](O)[C@H](O)[C@H]3NC(=O)CCCCCCCCC(C)C)Oc3ccc(cc3Cl)[C@@H](O)[C@@H]3NC(=O)[C@H](NC(=O)[C@@H]4NC(=O)[C@@H](NC2=O)c2cc(cc(O)c2Cl)Oc2cc1ccc2O)c1ccc(O)c(c1)-c1c(O[C@H]2O[C@H](CO)[C@@H](O)[C@H](O)[C@@H]2O)cc(O)cc1[C@@H](C(=O)NCCCN(C)C)NC3=O [PCM-0215113-001] | 0.7724 | 1.097 | 73.2 | –
C=CC(=O)Nc1cccc(Oc2nc(Nc3ccc(N4CCN(C)CC4)cc3)ncc2Cl)c1 [PCM-0095023-002] | 1.149 | 1.02 | 91.7 | –
O=C(NC(NC(=S)Nc1ccc(F)c([N+](=O)[O-])c1)C(Cl)(Cl)Cl)C(c1ccccc1)c1ccccc1 (stereo not shown) [PCM-0215199-001] | 0.9898 | 1.025 | 105.5 | –
C[n+]1cc2c3c(ccc2c2ccc4cc5c(cc4c21)OCO5)OCO3.[Cl-] [PCM-0065605-002] | 1.399 | 1.003 | 75.7 | –
C=CC(=O)N1CCC(Oc2cc3c(Nc4ccc(Cl)c(Cl)c4F)ncnc3cc2OC)CC1 [PCM-0215416-001] | 1.023 | 1.082 | 119.3 | –
OC1CCC(Oc2cccc3cnc(Nc4ccc5nc[nH]c5c4)nc23)CC1 (stereo not shown) [PCM-0215798-001] | 1.285 | 1.0276 | 66.2 | –
